Results from patent publication US20250092064A1, “BENZOTRIAZOLE COMPOUND” (DAIICHI SANKYO COMPANY, LIMITED, priority 2022, published 2025).
pIC50: −log10 of the molar value.

Key:
[1] = biological target: binding between Nrf2 and Keap1 (Homo sapiens (Human), UniProt Q14145); experiment: FP assay (in vitro): inhibition of Nrf2-Keap1 binding by fluorescence polarization; conditions: GST-fused human Keap1 (325-642) 20 nM, FITC-labeled Nrf2 peptide 10 nM, 2 hr at room temperature
[2] = tested on: NQO1 activity in Hepa1c1c7 cells; experiment: NAD(P)H: quinone oxidoreductase-1 (NQO1) enzyme induction assay (in vitro); type: cell-based, mouse; conditions: Mus musculus, Hepa-1c1c7, NQO1 activity with 400 nM test compound as a ratio from the base without compound, about 48 hr
In short: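 Mouse Hepa1c1c7 hepatoma cells treated 48 hr with 400 nM compound (final). NQO1 activity in lysates read by absorbance at 610 nm; value is background-subtracted activity ratio versus untreated cells.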

Sequence of binding between Nrf2 and Keap1 (Q14145 325-624 limits assumed): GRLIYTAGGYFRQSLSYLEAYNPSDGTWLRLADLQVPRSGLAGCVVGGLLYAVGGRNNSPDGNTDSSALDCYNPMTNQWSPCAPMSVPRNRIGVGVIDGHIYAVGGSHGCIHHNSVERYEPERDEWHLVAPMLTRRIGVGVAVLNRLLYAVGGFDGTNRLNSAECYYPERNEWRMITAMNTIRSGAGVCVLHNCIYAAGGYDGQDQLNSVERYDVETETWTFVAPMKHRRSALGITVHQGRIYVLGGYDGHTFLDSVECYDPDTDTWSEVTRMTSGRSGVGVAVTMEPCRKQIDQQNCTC

| Structure (SMILES) | pIC50 [1] | fold induction at 0.4 µM [2] |
| --- | --- | --- |
| CC[C@@H]1CN(Cc2cc([C@H](CC(=O)O)c3cc(OC(F)(F)F)c4c(nnn4C)c3C)cc3ccsc23)S(=O)(=O)c2cc(Cl)cnc2O1 [Example 46, (3S)-3-(7-{[(4R)-8-Chloro-4-ethyl-1,1-dioxido-3,4-dihydro-2H-pyrido[2,3-b][1,4,5]oxathiazepin-2-yl]methyl}-1-benzothiophen-5-yl)-3-[1,4-dimethyl-7-(trifluoromethoxy)-1H-benzotriazol-5-yl]propanoic acid] | 7.52 to 8.00 | 3 to 5 |
| CC[C@@H]1CN(Cc2cc(C(CC(=O)O)c3cc(C4CC4)c4c(nnn4C)c3C)cc3c2OCC3)S(=O)(=O)c2cc(Cl)cnc2O1 (stereo partly drawn) [Example 102, 3-(7-{[(4R)-8-Chloro-4-ethyl-1,1-dioxido-3,4-dihydro-2H-pyrido[2,3-b][1,4,5]oxathiazepin-2-yl]methyl}-2,3-dihydro-1-benzofuran-5-yl)-3-(7-cyclopropyl-1,4-dimethyl-1H-benzotriazol-5-yl)propanoic acid] | ≥ 8.00 | > 5 |
| Cc1c([C@H](CC(=O)O)c2cc(CN3C[C@@H](C)Oc4ccc(O)nc4[C@@H]3C)c3sccc3c2)ccc2c1nnn2C [Example 82, (3R)-3-(1,4-Dimethyl-1H-benzotriazol-5-yl)-3-(7-{[(2R,5S)-7-hydroxy-2,5-dimethyl-2,3-dihydropyrido[2,3-f][1,4]oxazepin-4(5H)-yl]methyl}-1-benzothiophen-5-yl)propanoic acid] | 7.52 to 8.00 | > 5 |
| CC[C@@H]1CN(Cc2cc(C(CC(=O)O)c3cc(O)c4c(nnn4C)c3C)cc3ccsc23)[C@@H](C)c2ncccc2O1 (single isomer, unassigned) [Example 93, (3S*)-3-(7-{[(2R,5S)-2-Ethyl-5-methyl-2,3-dihydropyrido[2,3-f][1,4]oxazepin-4(5H)-yl]methyl}-1-benzothiophen-5-yl)-3-(7-hydroxy-1,4-dimethyl-1H-benzotriazol-5-yl)propanoic acid] | ≥ 8.00 | > 5 |
| CC[C@@H]1CN(Cc2cc(C(CC(=O)O)c3cnc4c(nnn4C)c3C)cc3ccsc23)S(=O)(=O)c2cc(Cl)cnc2O1 (stereo partly drawn) [Example 59, 3-(7-{[(4R)-8-Chloro-4-ethyl-1,1-dioxido-3,4-dihydro-2H-pyrido[2,3-b][1,4,5]oxathiazepin-2-yl]methyl}-1-benzothiophen-5-yl)-3-(3,7-dimethyl-3H-[1,2,3]triazolo[4,5-b]pyridin-6-yl)propanoic acid] | 7.52 to 8.00 | > 5 |
| CC[C@@H]1CN(Cc2cc([C@@H](CC(=O)O)c3ccc4c(nnn4C)c3C)cc3ccsc23)[C@@H](C)c2ncccc2O1 [Example 63, (3R)-3-(1,4-Dimethyl-1H-benzotriazol-5-yl)-3-(7-{[(2R,5S)-2-ethyl-5-methyl-2,3-dihydropyrido[2,3-f][1,4]oxazepin-4(5H)-yl]methyl}-1-benzothiophen-5-yl)propanoic acid] | 7.52 to 8.00 | > 5 |
| CC[C@@H]1CN(Cc2cc([C@H](CC(=O)O)c3ccc4c(nnn4C)c3C)cc3c2CCC3)[C@@H](C)c2ncccc2O1 [Example 66, (3S)-3-(1,4-Dimethyl-1H-benzotriazol-5-yl)-3-(7-{[(2R,5S)-2-ethyl-5-methyl-2,3-dihydropyrido[2,3-f][1,4]oxazepin-4(5H)-yl]methyl}-2,3-dihydro-1H-inden-5-yl)propanoic acid] | 7.52 to 8.00 | > 5 |
| CCOc1cc2c(cc1Cl)S(=O)(=O)N(Cc1cc(C(CC(=O)O)c3ccc4c(nnn4C)c3C)cc3c1CCC3)C[C@@H](CC)O2 (stereo partly drawn) [Example 18, 3-(7-{[(4R)-8-Chloro-7-ethoxy-4-ethyl-1,1-dioxido-3,4-dihydro-2H-5,1,2-benzoxathiazepin-2-yl]methyl}-2,3-dihydro-1H-inden-5-yl)-3-(1,4-dimethyl-1H-benzotriazol-5-yl)propanoic acid] | 7.00 to 7.52 | 3 to 5 |
